How the values were obtained:
[1] = Antioxidant activity assessed as DPPH scavenging activity after 30 mins by spectrophotometry; type: physicochemical
[2] = Antiinflammatory activity in human erythrocytes assessed as inhibition of hypotonic solution-induced hemolysis after 10 mins by spectrophotometry; type: functional, cell-based; details: erythrocyte
[3] = Antioxidant activity assessed as ABTS scavenging activity after 6 mins by spectrophotometry; type: physicochemical
[4] = Antioxidant activity assessed as DMPD scavenging activity after 15 mins by spectrophotometry; type: physicochemical

Row | SMILES | IC50 [1] [uM/ml] | IC50 [2] [uM/ml] | IC50 [3] [uM/ml] | IC50 [4] [uM/ml]
1 | O=C(O)CCc1nc(O)c2ccccc2n1 | 1100 |  |  | 
2 | COc1cc(/C=N/NC(=O)CCc2nc3ccccc3c(=O)[nH]2)cc(OC)c1O | 126 | 530 | 105 | 275
3 | O=C(O)CCCc1nc2ccccc2c(=O)[nH]1 | 1250 |  |  | 
4 | COC(=O)CCc1nc2ccccc2c(=O)[nH]1.Cl | 862 | 1163 |  | 
5 | COC(=O)CCCc1nc2ccccc2c(=O)[nH]1.Cl | 772 | 975 | 280 | 
6 | O=C(CCc1nc2ccccc2c(=O)[nH]1)N/N=C/c1ccccc1 | 734 |  | 265 | 
7 | O=C(CCCc1nc2ccccc2c(=O)[nH]1)N/N=C/c1ccccc1 | 568 |  | 240 | 
8 | O=C(CCc1nc2ccccc2c(=O)[nH]1)N/N=C/c1ccc(Cl)cc1 | 381 | 84 | 185 | 
9 | O=C(CCCc1nc2ccccc2c(=O)[nH]1)N/N=C/c1ccc(Cl)cc1 | 353 | 67 |  | 
10 | O=C(CCc1nc2ccccc2c(=O)[nH]1)N/N=C/c1ccc([N+](=O)[O-])cc1 | 328 | 54 | 220 | 
11 | O=C(CCCc1nc2ccccc2c(=O)[nH]1)N/N=C/c1ccc([N+](=O)[O-])cc1 | 316 | 52 | 270 | 
12 | O=C(CCc1nc2ccccc2c(=O)[nH]1)N/N=C/c1ccc(O)cc1 | 238 |  | 105 | 300
13 | O=C(CCCc1nc2ccccc2c(=O)[nH]1)N/N=C/c1ccc(O)cc1 | 214 |  | 170 | 
14 | COc1ccc(/C=N/NC(=O)CCc2nc3ccccc3c(=O)[nH]2)cc1 | 214 |  | 75 | 
15 | COc1ccc(/C=N/NC(=O)CCCc2nc3ccccc3c(=O)[nH]2)cc1 | 247 |  | 180 | 280
16 | O=C(CCc1nc2ccccc2c(=O)[nH]1)N/N=C/c1ccc(O)c(O)c1 | 113 | 255 | 40 | 105
17 | O=C(CCCc1nc2ccccc2c(=O)[nH]1)N/N=C/c1ccc(O)c(O)c1 | 95 | 300 | 50 | 75
18 | COc1cc(/C=N/NC(=O)CCc2nc3ccccc3c(=O)[nH]2)ccc1O | 204 |  | 95 | 290
19 | COc1cc(/C=N/NC(=O)CCCc2nc3ccccc3c(=O)[nH]2)ccc1O | 236 |  | 115 | 280
20 | COc1cc(/C=N/NC(=O)CCCc2nc3ccccc3c(=O)[nH]2)cc(OC)c1O | 97 | 524 | 135 | 225
21 | COc1cc(/C=N/NC(=O)CCc2nc3ccccc3c(=O)[nH]2)cc(O)c1O | 104 | 261 | 40 | 50
22 | COc1cc(/C=N/NC(=O)CCCc2nc3ccccc3c(=O)[nH]2)cc(O)c1O | 88 | 277 | 50 | 80
23 | COc1cc(/C=N/NC(=O)CCc2nc3ccccc3c(=O)[nH]2)cc(OC)c1OC | 85 | 682 | 55 | 80
24 | COc1cc(/C=N/NC(=O)CCCc2nc3ccccc3c(=O)[nH]2)cc(OC)c1OC | 106 | 613 | 60 | 85
25 | O=C(CCc1nc2ccccc2c(=O)[nH]1)N/N=C/c1cc(O)c(O)c(O)c1 | 81 | 203 | 35 | 45
26 | O=C(CCCc1nc2ccccc2c(=O)[nH]1)N/N=C/c1cc(O)c(O)c(O)c1 | 78 | 183 | 40 | 45
27 | O=C1O[C@H]([C@@H](O)CO)C(O)=C1O [ASCORBIC ACID] |  |  | 65 | 140
28 | CC(=O)Oc1ccccc1C(=O)O [ASPIRIN] |  | 166 |  | 
29 | Cc1cc(C(C)(C)C)c(O)c(C(C)(C)C)c1 [BUTYLATED HYDROXYTOLUENE] | 114 |  |  | 
30 | O=C(O)c1cc(O)c(O)c(O)c1 [GALLIC ACID] |  |  | 60 | 100

Reference: ChEMBL document CHEMBL3397041, “Schiff's bases of quinazolinone derivatives: Synthesis and SAR studies of a novel series of potential anti-inflammatory and antioxidants” (Bioorg Med Chem Lett, 2015)
